18 molecules from PubChem BioAssay (NCI) can be followed below.

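Method: 48-hour compound exposure of cells in 96-well plates, five concentrations, linear interpolation of endpoints. GI50: concentration for 50% inhibition of growth. TGI: concentration producing complete growth inhibition.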

What all share (experiment): NCI tumour cell line growth inhibition, 48 h
Test [1] has as its system A549 NSCLC.
Test [2] relates to CAKI-1 renal.
The subject of test [3] is HOP-92 NSCLC.
For test [4], the system named is NCI-H522 lung.
Test [5] concerns OVCAR-5 ovarian.
Test [6] concerns SF-268 CNS.
The test system of test [7] is SF-295 CNS.
The subject of test [8] is SW-620 colon.
Test [9] concerns TK-10 renal.
Test [10] deals with U251 CNS.

`C[C@H](Nc1ncnc2nc[nH]c12)c1cc2ccc(F)cc2nc1-c1ccccn1`: the GI50 is greater than 100 µM in [1]; 33.7 µM in test [2]; 3.43 µM in [3]; greater than 54.1 µM in test [4]; greater than 77.2 µM in [5]; greater than 100 µM in test [6]. Further, the GI50 is 18.8 µM in test [7], greater than 100 µM in test [8], 47.4 µM in test [9] and greater than 100 µM in test [10]. Moreover, the TGI in test [1], in test [2], in [3], in test [4], in test [5] and in [6] was greater than 100 µM in each case. Also, the TGI in [7], in [8], in test [9] and in test [10] was greater than 100 µM each time.
With `CC(=O)c1ccc(OCC(O)CO)cc1` (stereo not given), the TGI in test [1], in test [2], in test [3], in test [4], in [5] and in [6] was greater than 100 µM throughout. Besides, the TGI in [7] was greater than 100 µM; in test [8], 29.4 µM; in [9], greater than 100 µM; in test [10], greater than 100 µM.
Turning to `O=C(CN(/C=C/C(=O)C(F)(F)F)c1ccc(Cl)cc1)c1ccccc1`, the GI50 in test [1] is 12 µM; in test [2] it was 0.933 µM; in test [3], 10.4 µM; in test [4], 6.52 µM; in test [5], 15.6 µM; in [6] it was greater than 100 µM. For the same molecule, the GI50 in test [7] is 12.1 µM; in test [8], 14.6 µM; in test [9], 7.88 µM; in test [10], 15.8 µM. In addition, the TGI in test [1] was greater than 100 µM; in test [2], 22.8 µM; in test [3] it was 28.1 µM; in test [4], 26.3 µM; in [5], 40.7 µM; in [6], greater than 100 µM. Further, the TGI was 41.4 µM in test [7], 62.1 µM in test [8], 37.2 µM in test [9] and 30.8 µM in test [10].
Turning to `Cc1ccccc1-n1ncc(C(=O)c2ccccc2)c1N`, the GI50 is greater than 25 µM in test [1]; greater than 25 µM in test [2]; 4.2 µM in [3]; greater than 25 µM in test [4]; greater than 25 µM in test [5]; greater than 25 µM in test [6]. Moreover, the GI50 in test [7], in test [8], in [9] and in test [10] was greater than 25 µM throughout. In addition, the TGI in test [1], in [2], in test [3], in [4], in test [5] and in test [6] was greater than 25 µM each time. Besides, the TGI in test [7], in [8], in test [9] and in test [10] was greater than 25 µM throughout.
Take `COC(=O)C(Cc1cc(OC)c(OC)c(OC)c1)c1ccc(OC)cc1` (stereo not given): the TGI in [1], in [2], in test [3], in [4], in test [5] and in test [6] was greater than 100 µM in each case. The TGI in test [7], in [8], in test [9] and in test [10] was greater than 100 µM each time.
In the case of `COc1ccc(C(SCC(N)C(=O)O)(c2ccccc2)c2ccccc2)cc1` (stereo not given), the GI50 is 0.594 µM in test [1]; 0.457 µM in test [2]; 2 µM in [3]; 0.104 µM in test [4]; 4.82 µM in test [5]; 0.0877 µM in test [6]. The GI50 in test [7] is 0.0948 µM; in [8], 0.0745 µM; in test [9] it was 20.6 µM; in test [10], 0.0497 µM. Also, the TGI in test [1] was greater than 100 µM; in [2] it was greater than 100 µM; in test [3], 66.8 µM; in [4], greater than 100 µM; in [5] it was greater than 100 µM; in test [6], 71.5 µM. Moreover, the TGI is greater than 100 µM in test [7], greater than 100 µM in [8], greater than 100 µM in test [9] and greater than 57 µM in test [10].
In the case of `COC(=O)C(=O)C(C(=O)C(=O)Nc1nc2ccc(C)cc2s1)c1nc2ccc([N+](=O)[O-])cc2[nH]c1=O` (stereo not given), the TGI in test [1], in test [2], in [3], in test [4], in test [5] and in test [6] was greater than 100 µM in each case. Also, the TGI in test [7], in test [8], in test [9] and in test [10] was greater than 100 µM throughout.
On to `C[C@]12CC[C@H](O)C[C@H]1CC[C@@H]1[C@@H]2CC[C@]2(C)[C@@H](C3=CC(=O)OC3)[C@@H](O)C[C@]12O`, for which the TGI was 1.65 µM in test [1]; 3.15 µM in test [2]; greater than 100 µM in [3]; 2.67 µM in [4]; 8.03 µM in test [5]; 2.55 µM in test [6]. The TGI was found to be 10.9 µM in [7], 14.6 µM in test [8], 1.99 µM in test [9] and 5.08 µM in test [10].
Turning to `CNC(=O)OCc1c2ccncc2c(C)c2c1[nH]c1ccccc12`, the TGI in test [1] came out at 2.58 µM; in test [2], 1.25 µM; in test [3], 16.5 µM; in [4], 0.272 µM; in [5] it was 1.78 µM; in test [6] it was 1.65 µM. In addition, the TGI in test [7] stood at 4.66 µM; in test [8], 2.38 µM; in test [9] it was 0.968 µM; in [10], 1.8 µM.
`COc1ccc2c(c1)[n+](=O)c(C(=O)c1ccco1)c(C(F)(F)F)n2[O-]`: the GI50 in [1] was 2.56 µM; in [2] it was 0.642 µM; in test [3] it was 1.83 µM; in test [4], 35.6 µM; in test [5], 3.51 µM; in [6] it was 3.41 µM. Besides, the GI50 in test [7] is 2.79 µM; in test [8], 3.53 µM; in [9] it was 8.56 µM; in [10], 2.04 µM. In addition, the TGI is 16.6 µM in test [1]; 4.54 µM in test [2]; 19.5 µM in test [3]; greater than 100 µM in test [4]; 22.3 µM in [5]; 33.2 µM in [6]. Besides, the TGI was found to be 14.7 µM in test [7], 34.5 µM in test [8], 60.4 µM in [9] and 8.67 µM in test [10].
Regarding `COc1cc(OC)c(/C=C\c2ccnc3ccccc23)c(OC)c1`, the TGI in test [1] turned out to be 18.6 µM; in [2], 22.2 µM; in test [3], 9.91 µM; in test [4], 18 µM; in [5] it was 19.3 µM; in test [6] it was 22.8 µM. Further, the TGI in test [7] worked out at 8.35 µM; in [8], 20.8 µM; in test [9], 17.8 µM; in [10] it was 15.2 µM.
Take `NNC(=O)CNC(=O)c1ccc(Cl)cc1Cl`: the TGI in test [1], in [2], in test [3], in test [4], in test [5] and in test [6] was greater than 100 µM throughout. Further, the TGI in test [7] was greater than 100 µM; in test [8], 33.3 µM; in [9], greater than 100 µM; in [10], greater than 100 µM.
As to `C=CC(C1=CC(=O)C(OC)=CC1=O)c1ccccc1` (stereo not given), the TGI in test [1] is greater than 62 µM; in test [2], 31.7 µM; in test [3], 11.8 µM; in test [4], 23.8 µM; in [5] it was 39 µM; in test [6] it was 41.3 µM. The TGI in test [7] worked out at 27.6 µM; in test [8], 48.6 µM; in test [9], 32 µM; in test [10], 30 µM.
Regarding `Cl.Fc1c[c-]c(-c2ccccn2)c(F)c1.[Pt].c1ccc(P(c2ccccc2)C([PH+](c2ccccc2)c2ccccc2)[PH+](c2ccccc2)c2ccccc2)cc1`, the GI50 was 2.84 µM in [1]; 2.19 µM in [2]; 1.7 µM in test [3]; 2.62 µM in test [4]; 2.97 µM in test [5]; 3.22 µM in test [6]. Besides, the GI50 is 3.46 µM in test [7], 3.19 µM in test [8], 2.67 µM in test [9] and 3.23 µM in [10]. Besides, the TGI was 20.7 µM in [1]; 7.41 µM in test [2]; 5.62 µM in [3]; 9.86 µM in [4]; greater than 100 µM in test [5]; 25.1 µM in test [6]. The TGI in test [7] is 14.7 µM; in test [8], 14.6 µM; in test [9], 11.9 µM; in [10] it was 13.6 µM.
For `CCN1C(=O)N(CC)C2Nn3c(s/c(=C\c4ccccc4Br)c3=O)=NC21` (stereo not given), the GI50 in [1] was 1.23 µM; in test [2], 1.75 µM; in [3] it was 4.14 µM; in test [4], 1.26 µM; in test [5], 2.01 µM; in test [6] it was 2.54 µM. The GI50 in test [7] was 0.691 µM; in [8], 1.27 µM; in [9], 9.34 µM; in [10] it was 0.676 µM. Further, the TGI in test [1] is greater than 100 µM; in test [2], 38.2 µM; in test [3] it was 80.8 µM; in [4] it was 4.15 µM; in [5] it was greater than 100 µM; in test [6], 29 µM. Besides, the TGI is 7.75 µM in test [7], greater than 100 µM in test [8], greater than 100 µM in test [9] and 19.4 µM in test [10].
As to `CC1C[C@H](C)CC(C(O)CC2CC(=O)N(Cc3ccccc3)C(=O)C2)C1O` (stereo not given in full), the TGI in [1], in test [2], in [3], in test [4], in [5] and in test [6] was greater than 100 µM each time. Moreover, the TGI in [7], in test [8], in test [9] and in test [10] was greater than 100 µM in each case.
Take `Nc1nc2c(s1)CCc1c-2c(Br)n(Cc2ccccc2)c1Br`: the GI50 in test [1] was 17.2 µM; in test [2] it was 3.14 µM; in test [3], 4.43 µM; in [4], 2.04 µM; in test [5], 19.8 µM; in test [6], 14.6 µM. Moreover, the GI50 in test [7] is 16.6 µM; in test [8], 3.31 µM; in [9], 4.41 µM; in test [10], 14 µM. Also, the TGI is greater than 100 µM in [1]; 12.1 µM in test [2]; 23.9 µM in [3]; 4.63 µM in test [4]; 39.3 µM in test [5]; 39 µM in test [6]. In addition, the TGI was determined as 33.4 µM in [7], 9.74 µM in test [8], 14.9 µM in test [9] and 28.2 µM in [10].
Consider `CC1COc2c(N3CCN(C)CC3)c(F)cc3c(=O)c(C(=O)O)cn1c23` (stereo not given), for which the GI50 in test [1] is greater than 100 µM; in [2], greater than 100 µM; in test [3] it was 0.478 µM; in [4], greater than 100 µM; in [5] it was 84.4 µM; in [6] it was greater than 100 µM. In addition, the GI50 in [7], in [8], in test [9] and in test [10] was greater than 100 µM in each case. For the same molecule, the TGI in test [1], in [2], in test [3], in test [4], in [5] and in test [6] was greater than 100 µM each time. The TGI in [7], in test [8], in [9] and in test [10] was greater than 100 µM throughout.
